Measured values taken from patent US6908937B2, “Heterocyclic fluoroalkenyl thioethers (II)” (Bayer Cropscience AG, priority 2000, dated 2005).

What was measured:
[1] = tested on: caterpillars of the army worm (Spodoptera frugiperda); assay: Spodoptera frugiperda test; type: in vivo; conditions: 1000 ppm, after 7 days, cabbage leaves dipped
Text: Spodoptera frugiperda Test

[2] = logP determination by HPLC (EEC Directive 79/831 Annex V.A8); type: physicochemical
[3] = tested on: larvae of the mustard beetle (Phaedon cochleariae); assay: Phaedon larvae test; conditions: 1000 ppm, after 7 days, cabbage leaves dipped
Meloidogyne incognita = assay: Meloidogyne test; type: in vivo; conditions: 20 ppm, after 14 days, lettuce
Protocol: Containers are filled with sand, solution of active compound, Meloidogyne incognita egg/larvae suspension and lettuce seeds. The lettuce seeds germinate and the plants develop. On the roots, galls are formed.
After the desired period of time, the nematicidal action is determined in % using gall formation as a measure. 100% means that no galls were found; 0% means that the number of galls on the treated plants corresponds to that of the untreated control.

[4] = tested on: Trichinella spiralis larvae; assay: Trichinella spiralis in-vitro; set-up: key: 0 means no activity; 1 means weak activity; 2 means good activity; 3 means full activity; conditions: 100 ppm, 5 days at 19° C.
Protocol: Trichinella spiralis In-vitro
Trichinella spiralis larvae are isolated from skeletal muscles and subcutaneous muscles of SPF/CFW1 mice and collected in aqueous 0.9% NaCl containing 20 μg of sisomycin/ml. Per determination, 20 larvae are incubated in 2 ml of a nutrient solution (20 g of Bacto Casitone/l, 10 g of yeast extract/l, 5 g of glucose/l, 0.8 g of KH2PO4/l, 0.8 g of K2HPO4; […] of sisomycin/ml and 1 μg of Canesten/ml; pH=7.2).
The incubation and the determination have been described in Martin et al., Pesticide Science (1996) 48, 343-349. 10 mg of the test compound are dissolved in 0.5 ml of the stated solvent, and such an amount of the resulting solution is added to the incubation medium that the desired concentration is reached. The controls contain only the solvent.
After an incubation time of 5 days at a temperature of 19° C., the experiment is terminated. The anthelmintic activity of a substance is categorized into 4 stages. 0 means no activity, 1 means weak activity, 2 means good activity and 3 means full activity (<50%, 50-75%, >75%, 100% of the larvae dead).

[5] = tested on: Boophilus microplus resistant (SP-resistant Parkhurst strain); assay: Test with Boophilus microplus resistant (SP-resistant Parkhurst strain/II), injection; type: in vivo; conditions: injected into the abdomen, after 7 days; for kill (no oviposition of fertile eggs): 20 μg per animal
Protocol: Test with Boophilus microplus Resistant (SP-resistant Parkhurst Strain/II)
20 mg of active compound are dissolved in 1 ml of dimethyl sulphoxide, more dilute concentrations are prepared by dilution in the same solvent.
The test is carried out in 5 replications. 1 μl of the solutions is injected into the abdomen, and the animals are transferred into dishes and kept in a climatized room. After 7 days, the activity is checked by examination for oviposition of fertile eggs. Eggs whose fertility is not visible from the outside are stored in glass tubes in a controlled-environment cabinet until the larvae have hatched. An activity of 100% means that no tick has produced any fertile eggs.

[6] = tested on: greenhouse red spider mite (Tetranychus urticae); assay: Tetranychus test (OP-resistant/dip treatment); type: in vivo; conditions: 0.1%, after 7 days, bean plants dipped
Text: Tetranychus Test (OP-resistant/Dip Treatment)

[7] = tested on: peach aphid (Myzus persicae); assay: Myzus test; type: in vivo; conditions: 10 ppm, after 6 days, Vicia faba seedlings dipped
[8] = tested on: adults of Ctenocephalides felis; assay: Test with cat fleas/oral uptake; type: in vivo; conditions: 100 ppm in citrated cattle blood, after 28 h
Protocol: Test with Cat Fleas/Oral Uptake
15 μl of this formulation are added to 3 ml of citrated cattle blood and stirred.
10 unfed adult fleas (Ctenocephalides felis, strain “Georgi”) are placed into a chamber (Ø 3.2 cm) whose top and bottom are closed with gauze. A metal cylinder whose underside is covered with parafilm is placed onto the chamber. […] Whereas the blood is warmed to 37° C., the temperature in the area of the flea chambers is adjusted to 25° C. Controls are mixed with the same volume of DMSO, without addition of a compound. The determinations are carried out in triplicate.
After 28 h, the mortality in % (=dead fleas) is determined.

[9] = tested on: Boophilus microplus resistant (SP-resistant Parkhurst strain); assay: Test with Boophilus microplus resistant (SP-resistant Parkhurst strain/I), dip; type: in vivo; conditions: 100 ppm, adult females dipped for 1 minute
Protocol: Test with Boophilus microplus Resistant (SP-resistant Parkhurst Strain/I)
(§1) 20 mg of active compound are dissolved in 1 ml of dimethyl sulphoxide, more dilute concentrations are prepared by dilution with distilled water.
10 adult Boophilus microplus res. are dipped for 1 minute into the preparation of active compound to be tested. The animals are transferred into plastic beakers and kept in a climatized room, and the kill rate is then determined.

[10] = tested on: Blatella germanica or Periplaneta americana; assay: Cockroach test; type: in vivo; conditions: 100 ppm, dipped for 1 minute, after 7 days
Protocol: 20 mg of active compound are dissolved in 1 ml of dimethyl sulphoxide, more dilute concentrations are prepared by dilution with distilled H2O.
4 test animals are dipped for 1 minute into the preparation of active compound to be tested.
The test animals are transferred into plastic beakers and kept in a climatized room for 7 days, after which the kill rate is determined.

Lucilia cuprina larvae = assay: Blowfly larvae test/development-inhibitory action; type: in vivo; conditions: 100 ppm
Protocol: Blowfly Larvae Test/Development-inhibitory Action
as §1
About 20 Lucilia cuprina larvae are introduced into a test tube which contains about 1 cm^3 of horse meat and 0.5 ml of the preparation of active compound to be tested. After 24 hours and 48 hours, the efficacy of the preparation of active compound is determined. The test tubes are transferred into a beaker whose bottom is covered with sand. After a further 2 days, the test tubes are removed and the pupae are counted.
The efficacy of the preparation of active compound is assessed by the number of flies that have hatched after 1.5 times the period of development of an untreated control. 100% means that no flies have hatched; 0% means that all flies have hatched normally.

[11] = pH2, HPLC gradient method, acetonitrile/0.1% aqueous phosphoric acid, Table 1

With `FC(F)=C(F)CCCCSc1nnc(-c2ccc(C(F)(F)F)cc2)o1` [Example 1, 2-(6,6,5-trifluorohex-5-enylthio)-5-(4-trifluoromethyl-phenyl)-1,3,4-oxadiazole] the melting point was 40 °C and the kill [1] was 100%.

In the case of `FC(F)=CCCCCSc1nnc(-c2ccc(C(F)(F)F)cc2)o1` [Example 2], the “logP (pH2)” value [2, 11] is reported as 4.77, the kill [3] is reported as 100% and the “nematicidal action (gall formation)” value (Meloidogyne incognita) is reported as 100%. The “anthelmintic activity class (larvae dead)” value (shortened to “anthelmintic activity class”) [4] was “no activity”, the “kill (no oviposition of fertile eggs)” value [5] was 100% and the kill [6] was 98%. For the same compound, the kill [7] was 95% and the “kill (mortality)” value [8] was 93%.

For `CSc1nnc(SCCCCC(F)=C(F)F)s1` [Example 5], the “logP (pH2)” value ([2]; pH 2) was 3.69, the “nematicidal action (gall formation)” value (Meloidogyne incognita) was 100% and the “kill (no oviposition of fertile eggs)” value [5] was 100%.

For `CSc1nnc(SCCCCC=C(F)F)s1` [Example 6], the kill [9] was 100%, the “logP (pH2)” value ([2]; pH 2) was 3.79 and the kill [3] was 100%. The kill [10] was 75%, the “activity (no oviposition of fertile eggs)” value ([5]; 0.8 μg per animal) was 100% and the “activity (no oviposition of fertile eggs)” value ([5]; 4 μg per animal) was 100%. The “kill (no oviposition of fertile eggs)” value [5] was 100%, the kill [6] was 98% and the kill [7] was 95%. The “kill (mortality)” value [8] was 81%.

In the case of `C[S+]([O-])c1nnc(SCCCCC(F)=C(F)F)s1` (stereo not drawn) [Example 9], the “logP (pH2)” value ([2]; pH 2) is reported as 2.46.

In the case of `FC(F)=CCCCCSc1nnc(C(F)(F)F)s1` [Example 10], the kill [9] is reported as 100%, the “logP (pH2)” value [2, 11] is reported as 4.32 and the kill [1] is reported as 100%. The “anthelmintic activity class” value [4] was “no activity”, the kill [10] was 100% and the “activity (no oviposition of fertile eggs)” value ([5]; 0.8 μg per animal) was 100%. The “activity (no oviposition of fertile eggs)” value ([5]; 4 μg per animal) was 100%, the “kill (no oviposition of fertile eggs)” value [5] was 100% and the kill [7] was 100%. For the same compound, the “kill (mortality)” value [8] was 87%.

With `FC(F)=C(F)CCCCSc1nnc(C(F)(F)F)s1` [Example 11] the “logP (pH2)” value [2, 11] was 4.21 and the kill [3] was 100%.

With `CC(C)CCSc1nnc(SCCCCC=C(F)F)s1` [Example 12] the kill [9] was 100%, the “kill (no flies hatched)” value (Lucilia cuprina larvae) was 100% and the “logP (pH2)” value ([2]; pH 2) was 5.68. The kill [3] was 100%, the “nematicidal action (gall formation)” value (Meloidogyne incognita) was 100% and the “anthelmintic activity class” value [4] was “no activity”. The “activity (no oviposition of fertile eggs)” value ([5]; 0.8 μg per animal) was 100%, the “activity (no oviposition of fertile eggs)” value ([5]; 4 μg per animal) was 100% and the “kill (no oviposition of fertile eggs)” value [5] was 100%. The kill [6] was 98% and the “kill (mortality)” value [8] was 94%.

For `CC(C)CCSc1nnc(SCCCCC(F)=C(F)F)s1` [Example 13], the “logP (pH2)” value [2, 11] was 5.53 and the “nematicidal action (gall formation)” value (Meloidogyne incognita) was 100%.

In the case of `FC(F)=C(F)CCCCSc1nnc(-c2cc(Cl)nc(Cl)c2)o1` [Example 16], the “logP (pH2)” value ([2]; pH 2) is reported as 4.55.

In the case of `FC(F)=C(F)CCCCSc1nnc(SCCCCC(F)=C(F)F)s1` [Example 21], the “logP (pH2)” value ([2]; pH 2) is reported as 5.27, the “anthelmintic activity class” value [4] is reported as “no activity” and the “activity (no oviposition of fertile eggs)” value ([5]; 0.8 μg per animal) is reported as 100%. The “activity (no oviposition of fertile eggs)” value ([5]; 4 μg per animal) was 100% and the “kill (no oviposition of fertile eggs)” value [5] was 100%.

With `CCOc1nnc(SCCCCC(F)=C(F)F)s1` [Example 24] the “logP (pH2)” value ([2]; pH 2) was 3.80.

In the case of `CC(C)Oc1nnc(SCCCCC(F)=C(F)F)s1` [Example 25], the “logP (pH2)” value ([2]; pH 2) is reported as 4.24.

With `FC(F)=C(F)CCCCSc1nnc(SCCC(F)=C(F)F)s1` [Example 27] the “logP (pH2)” value ([2]; pH 2) was 4.71.

In the case of `FC(F)=CCCCCSc1nnc(SCCC(F)=C(F)F)s1` [Example 28], the “logP (pH2)” value ([2]; pH 2) is reported as 4.84.

In the case of `FC(F)=C(F)CCCCSc1nnc(SC(F)F)s1` [Example 29], the “logP (pH2)” value ([2]; pH 2) is reported as 3.82.

With `FC(F)=CCCCCSc1nnc(SC(F)F)s1` [Example 30] the “logP (pH2)” value ([2]; pH 2) was 3.91.

With `FC(F)=CCCCCSC1=NCCCS1` [IB-1] the “logP (pH2)” value ([2]; pH 2) was 1.48.

With `FC(F)=C(F)CCCCSC1=NCCCS1` [IB-2] the “logP (pH2)” value ([2]; pH 2) was 1.51.
